Laboratory results published in patent US8030547B2, “Gene coding for acetolactate synthase” (priority 2002, dated 2011).

Columns and labels:
[1] = molecular target: T1, mutant ALS protein of Sr line (Oryza sativa subsp. japonica, UniProt Q6K2E8); experiment: Herbicide sensitivity of partially purified ALS protein (ALS activity inhibition), Sr line; format: biochemical, Oryza sativa var. Kinmaze; settings: read-out: I50 (nM) Sr; partially purified ALS, 30° C., probit analysis
T1 construct: other: partially purified ALS, 30° C., probit analysis
T1 sequence (Q6K2E8 whole entry W548L/S627I, form open): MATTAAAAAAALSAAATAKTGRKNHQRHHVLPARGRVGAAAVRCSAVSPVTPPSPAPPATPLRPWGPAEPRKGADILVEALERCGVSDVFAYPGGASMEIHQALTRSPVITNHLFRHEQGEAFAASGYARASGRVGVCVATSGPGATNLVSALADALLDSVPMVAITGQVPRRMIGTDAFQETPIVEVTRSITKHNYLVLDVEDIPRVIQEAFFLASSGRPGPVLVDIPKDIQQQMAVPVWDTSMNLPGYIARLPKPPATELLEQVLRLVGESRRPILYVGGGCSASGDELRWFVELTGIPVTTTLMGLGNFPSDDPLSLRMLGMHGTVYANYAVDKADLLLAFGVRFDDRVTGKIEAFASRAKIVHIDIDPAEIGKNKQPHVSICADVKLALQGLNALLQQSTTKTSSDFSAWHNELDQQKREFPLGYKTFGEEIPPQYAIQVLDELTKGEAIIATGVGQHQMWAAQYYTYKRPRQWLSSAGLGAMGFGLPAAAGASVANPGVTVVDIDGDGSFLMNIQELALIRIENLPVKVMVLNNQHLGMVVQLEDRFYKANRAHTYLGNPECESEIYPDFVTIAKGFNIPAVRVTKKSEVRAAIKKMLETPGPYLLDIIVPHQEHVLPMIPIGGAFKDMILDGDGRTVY
Method: (§1) First, 200 g or more of resistant mutant was prepared by a liquid culture method (no supplementation with bispyribac-sodium), using a composition as shown in Table 3 excluding Gelrite. Then, about 150 g of the resistant mutant was homogenized using Hiscotron in a volume of buffer-1 [100 mM potassium phosphate buffer (pH 7.5) containing 20% (v/v) glycerol, […] thiamin pyrophosphate (TPP), 10 μM flavin adenine dinucleotide (FAD), 0.5 mM MgCl2, and a volume of polyvinyl polypyrrolidone one-tenth that of tissue volume] 3-fold greater than tissue volume. The homogenate was filtered through nylon gauze, and then centrifuged at 15000×g for 20 minutes. Ammonium sulfate was added to the centrifuged supernatant to 50% saturation, and then allowed to stand in ice for approximately 1 hour. The mixture was again centrifuged at 15000×g for 20 minutes, and then the precipitated fraction was dissolved in approximately 30 ml of buffer-2 [10 mM Tris hydrochloric acid buffer (pH 7.5) containing 20% (v/v) glycerol, 0.5 mM TPP and 0.5 mM MgCl2]. The mixture was again centrifuged at 15000×g for 20 minutes, and then the supernatant fraction was applied to a Sephadex G-25 (Amersham Bioscience). About 40 ml of the fraction that had passed through the column was collected as a crude enzyme solution.
(§2) Next, the protein concentration of the crude enzyme solution was measured by the Bradford method according to the manual of Bio-Rad Protein Assay. The crude enzyme solution was then filtered through a Whatman filter (Whatman), and then the crude enzyme solution in an appropriate protein amount (10 to 15 ml) was applied to three vertically-connected HiTrap Q columns (Amersham Bioscience) using a FPLC device (Amersham Bioscience). After protein component was adsorbed using HiTrap Q, unadsorbed fractions were washed out using buffer-2 having a volume 3 to 5 fold greater than the bed volume. Then, the adsorbed protein component was eluted using an eluate having a volume 10 fold greater than the bed volume (150 ml). Here, the eluate was prepared by dissolving KCl with a linear concentration gradient (0 to 0.4 M) into buffer-2. The eluate containing the eluted protein component was apportioned, 5 ml each, into a plurality of test tubes for apportioning. Further, to stabilize ALS protein contained in the eluted protein component, 0.5 ml of buffer-2 containing 20 mM sodium pyruvate had been previously added to each test tube for apportioning.
(§3) ALS activity resulting from the mutant ALS protein contained in the eluted fractions apportioned into each test tube for apportioning was measured as follows. A reaction solution to be used in a measurement reaction was prepared by mixing an eluted fraction to be measured with a solution comprising 20 mM sodium pyruvate, 0.5 mM TPP, 0.5 mM MgCl2, 10 μM FAD and 20 mM potassium phosphate buffer (pH 7.5). One ml of this reaction solution was used. After the eluted fraction to be measured was added, the measurement reaction was performed at 30° C. for 40 to 60 minutes. Then, the reaction was stopped by addition of 0.1 ml of 6N sulfuric acid (or 0.25 N sodium hydroxide).
(§4) After the reaction was stopped, the reaction solution was incubated at 60° C. for 10 minutes, thereby converting acetolactate contained in the reaction solution to acetoin.
(§5) Then, to quantify acetoin contained in the reaction solution, 1 ml of 0.5% (w/v) creatine and 1 ml of 5% (w/v) α-naphthol dissolved in 2.5 N sodium hydroxide was added to the reaction solution, followed by incubation at 37° C. for 10 minutes. Acetoin was then quantified by color comparison of the absorbance (at 525 nm) of the reaction solution, thereby evaluating ALS activity. In addition, since the reaction solution contained a small amount of sodium pyruvate, reaction time 0 was used as control.
(§6) Using the enzyme solution containing the mutant ALS protein, sensitivity of the mutant ALS protein to bispyribac-sodium, chlorsulfuron and imazaquin was examined. […]

[2] = system: mutant ALS protein of Sr line; experiment: as above; format: biochemical, Oryza sativa var. Kinmaze; settings: I50 of the resistant mutant divided by I50 of the wild type
Method: as §1, §2, §3, §4, §5, §6

[3] = molecular target: T2, GST fusion P171H/W548L mutant ALS protein (Oryza sativa subsp. japonica, UniProt Q6K2E8, P171H/W548L); experiment: Herbicide sensitivity of ALS protein expressed in E. coli (crude enzyme solution), P171H/W548L; format: biochemical, rice (Oryza sativa var. Kinmaze); settings: for RS ratio: P171H/W548L mutant vs wild type; for Predicted RS ratio / RS ratio/ predicted RS ratio: P171H/W548L mutant; for Predicted RS ratio: product of RS ratios of the 1-point mutants; for inhibition at 100 µM: read-out: inhibition % at the highest concentration among the concentrations tested, P171H/W548L mutant, in 100 μM
T2 construct: made in house; host or cells: E. coli, pGEX-2T(ALS-P171H, W548L mutant); crude supernatant
T2 sequence (Q6K2E8 44-644 P171H/W548L): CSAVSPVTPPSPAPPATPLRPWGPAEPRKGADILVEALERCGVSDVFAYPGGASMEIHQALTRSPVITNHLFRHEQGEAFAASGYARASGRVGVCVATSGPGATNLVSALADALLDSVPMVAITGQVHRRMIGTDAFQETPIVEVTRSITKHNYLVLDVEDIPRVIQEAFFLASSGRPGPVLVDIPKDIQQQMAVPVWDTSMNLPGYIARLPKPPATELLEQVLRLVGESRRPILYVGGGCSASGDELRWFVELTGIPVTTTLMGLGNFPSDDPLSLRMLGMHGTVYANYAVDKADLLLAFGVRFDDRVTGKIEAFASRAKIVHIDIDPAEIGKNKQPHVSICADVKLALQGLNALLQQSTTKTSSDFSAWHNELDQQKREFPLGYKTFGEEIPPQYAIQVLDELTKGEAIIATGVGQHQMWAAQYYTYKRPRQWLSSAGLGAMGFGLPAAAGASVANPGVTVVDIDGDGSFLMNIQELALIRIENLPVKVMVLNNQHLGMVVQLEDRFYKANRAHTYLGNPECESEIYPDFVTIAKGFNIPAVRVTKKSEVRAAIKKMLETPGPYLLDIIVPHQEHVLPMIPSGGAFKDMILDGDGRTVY
Method: as §3, §4, §5
E. coli transformed with pGEX-2T(ALS-wild) constructed in Example 3(5), E. coli transformed with pGEX-2T(ALS-W548L mutant) constructed in Example 5, E. coli transformed with pGEX-2T(ALS-S627I mutant) constructed in Example 5, E. coli transformed with pGEX-2T(ALS P171H mutant) constructed in Example 6, E. coli transformed with pGEX-2T(ALS R172S mutant) constructed in Example 6, E. coli transformed with pGEX-2T(ALS P171H, R172S mutant) constructed in Example 7, E. coli transformed with pGEX-2T(ALS-P171H, W548L mutant) constructed in Example 8, E. coli transformed with pGEX-2T(ALS-P171H, S627I mutant) constructed in Example 8, and E. coli transformed with pGEX-2T(ALS-P171H, W548L, S627I mutant) constructed in Example 9 were respectively shake-cultured (pre-culture) at 27° C. in 2 ml of LB liquid medium containing ampicillin. These types of E. coli were respectively cultured in 250 ml of LB liquid medium containing ampicillin using 1 ml of the pre-culture solution. After culturing overnight, 1 mM IPTG was added to the media, and then culturing was performed for a further 3 to 4 hours, so that the expression of GST fusion protein was induced. In addition, the cells were stored at −80° C. after washing.
Preparation and purification of ALS from E. coli were performed by the following method. First, the pellet of the transformant E. coli stored at −80° C. was suspended in ALS extraction buffer (potassium phosphate buffer (pH 7.5) containing 30% glycerol and 0.5 mM MgCl2). Specifically, 2.5 ml of the buffer was added to the pellet obtained from 50 ml of the culture solution. The suspension was subjected to ultrasonication (Heat Systems-Ultrasonics, Sonicator W-225R, micro chip, output control 8, interval of approximately 1 second, twice (40 seconds each)), and subjected to centrifugation at 15000×g, 4° C. for 20 minutes, thereby obtaining the supernatant as a crude enzyme solution.
Herbicide sensitivity of the wild type ALS protein and that of mutant ALS protein were examined using the 9 types of crude enzyme solutions obtained in Example 10. Herbicide sensitivity test was performed according to procedures almost the same as those in Example 2. However, in this example, reaction temperature was 37° C., reaction time was 30 minutes, and 10 mM valine was added to the reaction solution to inhibit ALS activity derived from E. coli. Further, three types of herbicides, bispyribac-sodium, pyrithiobac-sodium, and pyriminobac, were used as PC herbicides; chlorsulfuron was used as a sulfonylurea herbicide; and imazaquin was used as an imidazolinon herbicide. […]

SMILES | IC50 [1] | RS ratio Sr [2] | RS ratio [3] | Predicted RS ratio [3] | inhibition at 100 µM [3] | RS ratio/ predicted RS ratio [3]
CC(C)C1(C)N=C(c2nc3ccccc3cc2C(=O)O)NC1=O (centres unmarked) [imazaquin] | 16700 nM | 11.3 | >45 | >68 | 13% | 
COc1cc(OC)nc(Oc2cccc(Oc3nc(OC)cc(OC)n3)c2C(=O)O)n1 [bispyribac-sodium] | 421 nM | 74.8 | >15000 | 4500 | 5% | >3.3
COc1nc(C)nc(NC(=O)NS(=O)(=O)c2ccccc2Cl)n1 [chlorsulfuron] | 92.8 nM | 5.36 | >7700 | 65000 | 16% | >0.18
